What was measured:
[1] = tested on: corneal endothelial cells; test: VIP treatment of mice after trigeminal axotomy: corneal endothelial cell density (immunofluorescence, ZO-1 staining); assay type: in vivo, BALB/c mice; conditions: daily intraperitoneal VIP 5 nM in 10 μL, day 14, versus saline
Method: (§1) Six- to eight-week old male BALB/c mice (Charles River, Wilmington, Mass.) were used in these experiments. Trigeminal axotomy was performed by first anesthetizing the animals with a ketamine (100 mg/mL)/xylazine (20 mg/mL)/acepromazine (15 mg/mL) mixture. After anesthetization, small incision lateral canthotomy was performed, two tractional sutures were placed on the lid skin, and the conjunctival fornix were incised circumferentially around 90 degrees. The eye globe was rotated nasally by gently pushing the nasal fornix with blunt forceps, exposing the trigeminal nerve and minimizing intraoperative bleeding through mild elevation of the intraorbital pressure. The ophthalmic branches of the trigeminal nerve were cut at the posterior sclera close to the optic nerve with sharp forceps. After cutting the branches of the trigeminal nerve, the skin was sutured using 8-0 nylon. Tarsorrhaphy was performed to reduce the risk of infection and exposure keratitis in the mice. Finally, an antibiotic ointment (bacitracin-neomycin-polymyxin mixture) was applied to the sutured area and the treated eye in the mice. Fluxinin (0.25 mg /kg body weight) was administered every 12 hours for 24 hours by subcutaneous injection. […]
Corneal endothelial cells were counted using cell counter plug-ins with ImageJ software (NIH, Bethesda, Md.). […] The results are expressed as mean±SEM, and considered significant if p<0.05.

cornea = test: VIP treatment of mice after trigeminal axotomy: corneal thickness by AS-OCT; assay type: in vivo, BALB/c mice; conditions: daily intraperitoneal VIP 5 nM in 10 μL, day 14, AS-OCT, versus saline
Method: as §1, with “mice.” for “mice. Fluxinin (0.25 mg /kg body weight) was administered every 12 hours for 24 hours by subcutaneous injection.”
Normal and post-operative cornea were examined using anterior segment optical coherence tomography (AS-OCT, RTVue, Optoview, Inc., Fremont, Calif.) at 7, 14 and 21 days after the surgical procedure. […] The corneal thickness was measured using built-in software. […]

How did the “corneal endothelial cell density” value [1] turn out when vasoactive intestinal peptide [VIP] was run?
The value was “didn't decrease”.

And the corneal thickness (cornea)?
Its corneal thickness is “remained within the normal ranged”.

— patent US20180200339A1, “METHODS OF REDUCING CORNEAL ENDOTHELIAL CELL LOSS” (Massachusetts Eye and Ear Infirmary, priority 2013, published 2018)
